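Each compound was tested at five concentrations against cells in 96-well plates for 48 hours. At the GI50, growth is halved. TGI is the concentration that stops growth completely.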
Columns and labels:
Experiment in all cases: growth of human tumour cells (NCI), 48 h
[1] = system: 786-0 renal
[2] = system: A549 NSCLC
[3] = system: ACHN renal
[4] = system: BT-549 breast
[5] = system: CAKI-1 renal
[6] = system: COLO 205 colon
[7] = system: EKVX NSCLC
[8] = system: HCC-2998 colon
[9] = system: HCT-116 colon
[10] = system: HCT-15 colon
[11] = system: HOP-62 NSCLC
[12] = system: HOP-92 NSCLC
[13] = system: HS 578T breast
[14] = system: HT29 colon
[15] = system: IGROV1 ovarian
[16] = system: K-562 leukemia
[17] = system: KM12 colon
[18] = system: LOX IMVI melanoma
[19] = system: M14 melanoma
[20] = system: MCF7 breast
[21] = system: MDA-MB-231 breast
[22] = system: MDA-MB-435
[23] = system: NCI-H226 lung
[24] = system: NCI-H23 lung
[25] = system: NCI-H460 lung
[26] = system: NCI-H522 lung
[27] = system: NCI/ADR-RES ovarian
[28] = system: OVCAR-3 ovarian
[29] = system: OVCAR-4 ovarian
[30] = system: OVCAR-5 ovarian
[31] = system: OVCAR-8 ovarian
[32] = system: PC-3 prostate
[33] = system: RPMI-8226 leukemia
[34] = system: RXF 393 renal
[35] = system: SF-268 CNS
[36] = system: SF-295 CNS
[37] = system: SF-539 CNS
[38] = system: SK-MEL-2 melanoma
[39] = system: SK-MEL-28 melanoma
[40] = system: SK-OV-3 ovarian
[41] = system: SNB-19 CNS
[42] = system: SNB-75 CNS
[43] = system: SW-620 colon
[44] = system: TK-10 renal
[45] = system: U251 CNS
[46] = system: UACC-257 melanoma
[47] = system: UACC-62 melanoma
[48] = system: UO-31 renal
[49] = system: A498 renal
[50] = system: CCRF-CEM leukemia
[51] = system: DU-145 prostate
[52] = system: HL-60(TB) leukemia
[53] = system: MALME-3M melanoma
[54] = system: MOLT-4 leukemia
[55] = system: SK-MEL-5 melanoma
[56] = system: SN12C renal
[57] = system: SR leukemia
[58] = system: T-47D breast

## NCC1OC(OC2C(CO)OC(OC3C(O)C(N)CC(N)C3OC3OC(CO)C(O)C(O)C3N)C2O)C(N)C(O)C1O (centres undefined)
[1]
  GI50: > 50 µg/mL
  TGI: > 50 µg/mL
[2]
  GI50: > 50 µg/mL
  TGI: > 50 µg/mL
[3]
  GI50: > 50 µg/mL
  TGI: > 50 µg/mL
[4]
  GI50: > 50 µg/mL
  TGI: > 50 µg/mL
[5]
  GI50: > 50 µg/mL
  TGI: > 50 µg/mL
[6]
  GI50: > 50 µg/mL
  TGI: > 50 µg/mL
[7]
  GI50: > 50 µg/mL
  TGI: > 50 µg/mL
[8]
  GI50: > 50 µg/mL
  TGI: > 50 µg/mL
[9]
  GI50: > 50 µg/mL
  TGI: > 50 µg/mL
[10]
  GI50: > 50 µg/mL
  TGI: > 50 µg/mL
[11]
  GI50: > 50 µg/mL
  TGI: > 50 µg/mL
[12]
  GI50: > 50 µg/mL
  TGI: > 50 µg/mL
[13]
  GI50: > 50 µg/mL
  TGI: > 50 µg/mL
[14]
  GI50: > 50 µg/mL
  TGI: > 50 µg/mL
[15]
  GI50: > 50 µg/mL
  TGI: > 50 µg/mL
[16]
  GI50: > 50 µg/mL
  TGI: > 50 µg/mL
[17]
  GI50: > 50 µg/mL
  TGI: > 50 µg/mL
[18]
  GI50: > 50 µg/mL
  TGI: > 50 µg/mL
[19]
  GI50: > 50 µg/mL
  TGI: > 50 µg/mL
[20]
  GI50: > 50 µg/mL
  TGI: > 50 µg/mL
[21]
  GI50: > 50 µg/mL
  TGI: > 50 µg/mL
[22]
  GI50: > 50 µg/mL
  TGI: > 50 µg/mL
[23]
  GI50: > 50 µg/mL
  TGI: > 50 µg/mL
[24]
  GI50: > 50 µg/mL
  TGI: > 50 µg/mL
[25]
  GI50: > 50 µg/mL
  TGI: > 50 µg/mL
[26]
  GI50: > 50 µg/mL
  TGI: > 50 µg/mL
[27]
  GI50: > 50 µg/mL
  TGI: > 50 µg/mL
[28]
  GI50: > 50 µg/mL
  TGI: > 50 µg/mL
[29]
  GI50: > 50 µg/mL
  TGI: > 50 µg/mL
[30]
  GI50: > 50 µg/mL
  TGI: > 50 µg/mL
[31]
  GI50: > 50 µg/mL
  TGI: > 50 µg/mL
[32]
  GI50: > 50 µg/mL
  TGI: > 50 µg/mL
[33]
  GI50: > 50 µg/mL
  TGI: > 50 µg/mL
[34]
  GI50: > 50 µg/mL
  TGI: > 50 µg/mL
[35]
  GI50: > 50 µg/mL
  TGI: > 50 µg/mL
[36]
  GI50: > 50 µg/mL
  TGI: > 50 µg/mL
[37]
  GI50: > 50 µg/mL
  TGI: > 50 µg/mL
[38]
  GI50: > 50 µg/mL
  TGI: > 50 µg/mL
[39]
  GI50: > 50 µg/mL
  TGI: > 50 µg/mL
[40]
  GI50: > 50 µg/mL
  TGI: > 50 µg/mL
[41]
  GI50: > 50 µg/mL
  TGI: > 50 µg/mL
[42]
  GI50: > 50 µg/mL
  TGI: > 50 µg/mL
[43]
  GI50: > 50 µg/mL
  TGI: > 50 µg/mL
[44]
  GI50: > 50 µg/mL
  TGI: > 50 µg/mL
[45]
  GI50: > 50 µg/mL
  TGI: > 50 µg/mL
[46]
  GI50: > 50 µg/mL
  TGI: > 50 µg/mL
[47]
  GI50: > 50 µg/mL
  TGI: > 50 µg/mL
[48]
  GI50: > 50 µg/mL
  TGI: > 50 µg/mL

## CCOc1ccc(/C=C/[N+](=O)[O-])cc1
[49]
  GI50: 2.79 µM
  TGI: 11.5 µM
[2]
  GI50: 12.6 µM
  TGI: 27.7 µM
[3]
  GI50: 12 µM
  TGI: 24.3 µM
[5]
  GI50: 37 µM
  TGI: > 100 µM
[50]
  GI50: 3.23 µM
  TGI: 52.3 µM
[6]
  GI50: 4.71 µM
  TGI: 15.5 µM
[51]
  GI50: 10.4 µM
  TGI: 22.2 µM
[7]
  GI50: 25.7 µM
  TGI: 81.7 µM
[8]
  GI50: 1.82 µM
  TGI: 3.94 µM
[9]
  GI50: 1.93 µM
  TGI: 3.55 µM
[10]
  GI50: 2.84 µM
  TGI: 11.3 µM
[52]
  GI50: 8.83 µM
  TGI: 49 µM
[11]
  GI50: 12.5 µM
  TGI: 26.3 µM
[12]
  GI50: 12.9 µM
  TGI: 28.1 µM
[13]
  GI50: 35.3 µM
  TGI: > 100 µM
[14]
  GI50: 2.32 µM
  TGI: 5.27 µM
[15]
  GI50: 21.8 µM
  TGI: > 100 µM
[16]
  GI50: 4.52 µM
  TGI: > 100 µM
[17]
  GI50: 4.51 µM
  TGI: 15.4 µM
[19]
  GI50: 2.06 µM
  TGI: 4.24 µM
[53]
  GI50: 19 µM
  TGI: 36.9 µM
[20]
  GI50: 3.4 µM
  TGI: 13.5 µM
[21]
  GI50: 7.91 µM
  TGI: 20.9 µM
[22]
  GI50: 3.18 µM
  TGI: 13.7 µM
[54]
  GI50: 5.7 µM
  TGI: 42.9 µM
[23]
  GI50: 3.06 µM
  TGI: 11.7 µM
[24]
  GI50: 18.5 µM
  TGI: > 100 µM
[25]
  GI50: 26.8 µM
  TGI: > 100 µM
[26]
  GI50: 13.2 µM
  TGI: 28 µM
[27]
  GI50: 33 µM
  TGI: > 100 µM
[28]
  GI50: 4.53 µM
  TGI: 15.8 µM
[29]
  GI50: 23.4 µM
  TGI: > 100 µM
[30]
  GI50: 6.31 µM
  TGI: 19.8 µM
[31]
  GI50: 13.2 µM
  TGI: 27.1 µM
[32]
  GI50: 12.4 µM
  TGI: 33.7 µM
[33]
  GI50: 2.14 µM
  TGI: 6.17 µM
[34]
  GI50: 1.79 µM
  TGI: 3.56 µM
[35]
  GI50: 14.1 µM
  TGI: 28.6 µM
[36]
  GI50: 19.2 µM
  TGI: 41.8 µM
[37]
  GI50: 2.35 µM
  TGI: 6.4 µM
[38]
  GI50: 17.1 µM
  TGI: 33 µM
[39]
  GI50: 16.6 µM
  TGI: 30.9 µM
[55]
  GI50: 5.78 µM
  TGI: 18.5 µM
[56]
  GI50: 14.7 µM
  TGI: 28.3 µM
[41]
  GI50: 8.95 µM
  TGI: 22 µM
[42]
  GI50: 13 µM
  TGI: 30.9 µM
[57]
  GI50: 2.56 µM
  TGI: 6.37 µM
[43]
  GI50: 3.15 µM
  TGI: 11.9 µM
[58]
  GI50: 17.6 µM
  TGI: 42.8 µM
[44]
  GI50: 12 µM
  TGI: 24.7 µM
[45]
  GI50: 3.1 µM
  TGI: 8.83 µM
[46]
  GI50: 11.2 µM
  TGI: 24 µM
[47]
  GI50: 13.8 µM
  TGI: 27.2 µM
[48]
  GI50: 13.8 µM
  TGI: 28.8 µM

From PubChem BioAssay (NCI)
